Here are results for 73 compounds from ChEMBL document CHEMBL3507680, “University of Dundee, Gates Library screen for HepG2 cell viability”.

A short description of this data set: Human HepG2 cell viability assay in 384 well format. More on the design: dose 125 nL, time 70.5 hour; concentration not given beside the values. The data set is classed as toxicity, cell-based. As to conditions: HepG2 cells, read-out: Inhibition.

Molecules are shown by their SMILES.

`Cc1cnn(CC2CCCN2Cc2nnc(C3CC3)n2C)c1` (stereo not drawn): the cytotoxicity at 70.5 h is -8.67%.
Take `CC(C)c1nc(C2CCCN(C(=O)c3nccn4ccnc34)C2)no1` (stereo not drawn): the cytotoxicity at 70.5 h is -7.38%.
For `CCn1ccnc1CN1CCCN(C(=O)Cc2ccccc2C)CC1` the value was -1.08%.
As for `CC(c1nc(C2CC2)no1)N1CCN(Cc2noc(C3CC3)n2)CC1` (stereo not drawn), the cytotoxicity at 70.5 h is -2.08%.
The same measure for `O=C(CCOCC(F)(F)F)N1CCCC(n2ccnc2)C1` (stereo not drawn): -6.65%; for `CCc1n[nH]c(C2CN(C(=O)c3cscn3)CCO2)n1` (stereo not drawn): 43%; for `CCc1n[nH]c(C2CN(C(=O)c3ccc4c(c3)COC4)CCO2)n1` (stereo not drawn): 18%.
For `CN(CCc1ccncc1)CC1CCCN1c1cccnn1` (stereo not drawn) the value was 25.1%; for `CN(Cc1ccccn1)CC1CCCN1c1cccnn1` (stereo not drawn), -5.71%.
In the case of `COc1cccc(COCC(=O)N2CCCC2Cn2cccn2)c1` (stereo not drawn), the cytotoxicity at 70.5 h is -11.8%.
Take `Cc1cnn(CC2CCCN2C(=O)c2cn(C)c3ccccc23)c1` (stereo not drawn): the cytotoxicity at 70.5 h was -9.04%.
On to `CN(Cc1cccc(C(N)=O)c1)CC1CCCN1c1cccnn1` (stereo not drawn), for which the cytotoxicity at 70.5 h is -10.2%.
With `CC(Cn1cccn1)NC(=O)NCc1cccnc1` (stereo not drawn), the cytotoxicity at 70.5 h is -9.07%.
The same measure for `Cc1ccc(C(=O)NC2CCN(C(=O)Nc3ccccn3)CC2)s1`: 11.7%.
As to `Cc1nc(CN2CCOC(Cn3cccn3)C2)nc2ccccc12` (stereo not drawn), the cytotoxicity at 70.5 h was -12.1%.
For `COc1ccc(C(=O)N(C)Cc2nnc3ccccn23)cc1` the value was 10.4%; for `COc1cc(OC)cc(C(=O)N(C)Cc2nnc3ccccn23)c1`, -1.71%.
For `Cc1cnn(CC2CN(Cc3nc4ccccc4n3C)CCO2)c1` (stereo not drawn) the value was 9.31%; for `CCN1CCN(C2CCN(Cc3nnc(C(C)C)o3)CC2)C1=O`, -7.93%; for `O=C(c1nccc2ccccc12)N1CCCCC1Cn1cccn1` (stereo not drawn), -5.86%.
For `COc1ccc(CC(=O)N2CCCCC2Cn2cccn2)cc1` (stereo not drawn) the value was -3.73%.
Take `CC(C)NC(=O)Nc1ccc(CNCc2cccc(C#N)c2)cc1`: the cytotoxicity at 70.5 h is -3.33%.
Consider `CCc1ccsc1C(=O)N1CCN(C(=O)CC(F)(F)F)CC1`, for which the cytotoxicity at 70.5 h came out at 3.81%.
For `CCOc1ncccc1NC(=O)NC1CCN(S(C)(=O)=O)CC1` the value was 20.6%; for `CN(C(=O)CN1CCOC(Cn2cccn2)C1)c1nccs1` (stereo not drawn), 9.89%.
For `COC(=O)c1cccn1C1CCN(Cc2ccccc2)CC1` the value was 15.7%; for `Cc1cnn(CC2CCCN2CC(=O)Nc2cc(C(C)(C)C)no2)c1` (stereo not drawn), 5.18%.
As to `CCc1ccsc1C(=O)N1CCN(CC(O)CC)CC1` (stereo not drawn), the cytotoxicity at 70.5 h turned out to be 6.44%.
In the case of `CCOc1ncccc1C(=O)N1CCCC1c1c(C)nn(C)c1OC` (stereo not drawn), the cytotoxicity at 70.5 h was 1.14%.
The same measure for `Cc1cnn(CC2CCCN2C(=O)c2cc(Cl)ccc2F)c1` (stereo not drawn): 28.1%.
On to `c1ncn(CC2CN(CC3CCCC3)CCO2)n1` (stereo not drawn), for which the cytotoxicity at 70.5 h is 0.357%.
The same measure for `O=C(NCc1nnc2n1CCCCC2)N1CCc2sccc2C1`: -5.42%.
Turning to `O=C(NCc1csc(Br)c1)c1ccc(=O)[nH]n1`, the cytotoxicity at 70.5 h was -15.6%.
The same measure for `Cn1ccc(CN2CCC(CCc3ccc(O)cc3)CC2)cc1=O`: -9.59%; for `Cc1nc(CN2CCCC2c2ccsc2)nc2ccccc12` (stereo not drawn): 4.71%; for `CCN1CCC(NC(=O)CN2CCc3c(ncn3C)C2)CC1`: 2.11%.
For `Clc1ccc(-n2cc(CNC3CCc4ncnn4C3)cn2)cc1` (stereo not drawn) the value was -12.4%; for `Cc1cnn(CC2CCCN2c2nn3cc(C)nc3s2)c1` (stereo not drawn), -4.6%.
`CCc1nccn1C1CCCN(C(=O)Cc2n[nH]c3ccccc23)C1` (stereo not drawn): the cytotoxicity at 70.5 h is -1.24%.
For `Cc1nc2ccccc2nc1CN1CCCC1c1c(C)nn(C)c1C` (stereo not drawn) the value was -4.26%; for `Cc1ccsc1CNc1cc(N2CCCC2CO)ncn1` (stereo not drawn), -4.35%.
For `Cc1[nH]ncc1C(=O)N1CCCC(n2cncn2)C1` (stereo not drawn), the cytotoxicity at 70.5 h was -1.06%.
The same measure for `Cc1nc(C)n(C2CCCN(C(=O)c3cc(C(N)=O)cs3)C2)n1` (stereo not drawn): -17.1%; for `CCc1n[nH]c(C2CN(CCc3cccs3)CCO2)n1` (stereo not drawn): 22.1%; for `O=C(NCc1nnc2ccccn12)N1CCc2sccc2C1`: -21.7%.
For `c1cnn(CC2CN(CC3CCCC3)CCO2)c1` (stereo not drawn) the value was -9.69%.
As to `COc1ccc(C)cc1CN1CCCC1Cn1nc(C)nc1C` (stereo not drawn), the cytotoxicity at 70.5 h was -9.81%.
For `CCc1n[nH]c(C2CN(CCc3ccncc3)CCO2)n1` (stereo not drawn) the value was -7.11%.
Take `Cc1nc(C2CCCN(C(=O)C(C)(C)n3cc(Cl)cn3)C2)no1` (stereo not drawn): the cytotoxicity at 70.5 h was -13.5%.
The same measure for `COc1cccc(CCC(=O)N2CCCC(n3cc(C)cn3)C2)c1` (stereo not drawn): -15.8%.
For `Cc1cnn(CC2CCCN2C(=O)c2ccc3[nH]nnc3c2)c1` (stereo not drawn) the value was 17.5%; for `CC(C)c1nc(CN2CCN(C(C)c3nc(C4CC4)no3)CC2)no1` (stereo not drawn), -4.05%.
For `O=C(NCCCn1cncn1)NCC(c1ccco1)N1CCCCC1` (stereo not drawn) the value was -18.7%; for `CC(Cn1cccn1)NC(=O)NCc1ccc(S(N)(=O)=O)cc1` (stereo not drawn), -7.93%.
For the compound `Cc1cnn(CC2CN(Cc3nc(N)c4ccccc4n3)CCO2)c1` (stereo not drawn), the cytotoxicity at 70.5 h turned out to be 22.8%.
As to `Cc1cnn(CC2CCCCN2C(=O)c2ccc3nnc(C)n3c2)c1` (stereo not drawn), the cytotoxicity at 70.5 h was -10.9%.
The same measure for `O=C(CCc1cccs1)N1CCC(N2CCNC2=O)CC1`: -0.95%.
Consider `Cc1ccc(C(=O)NC2CCN(C(=O)Nc3ccccn3)CC2)o1`, for which the cytotoxicity at 70.5 h worked out at 16.1%.
Turning to `CCN(Cc1nc2c(cnn2C)c(=O)[nH]1)c1cccc(Cl)c1`, the cytotoxicity at 70.5 h was -15.8%.
For `Cc1cc(F)ccc1S(=O)(=O)NCc1cccc(C(=O)N2CCCC2)c1` the value was -14.8%.
For `COc1ccc(C(=O)N(C)Cc2nnc3ccccn23)c(OC)c1` the value was -15.7%.
For the compound `O=C(c1ccc(-n2cccn2)nc1)N1CCC(Nc2cccnn2)CC1`, the cytotoxicity at 70.5 h was -18.2%.
As to `O=C(NCc1cccnc1)C1CC(=O)N(CC2CC2)C1` (stereo not drawn), the cytotoxicity at 70.5 h is -6.68%.
Consider `CCc1ccc(OCC(O)CN2CCC(O)CC2)cc1` (stereo not drawn), for which the cytotoxicity at 70.5 h is 24.8%.
For `COc1cccc(CNC(=O)CN2CCCCC2Cn2cccn2)c1` (stereo not drawn) the value was -7.75%; for `CCn1cc(CN2CCCN(C(=O)Cc3ccc(C)nc3)CC2)cn1`, -9.56%.
Consider `Cc1cnn(CC2CN(Cc3nc4ccccc4nc3C)CCO2)c1` (stereo not drawn), for which the cytotoxicity at 70.5 h is -0.573%.
Regarding `Cc1ccc(C(=O)N2CCN(C(=O)Nc3ccccn3)CC2)o1`, the cytotoxicity at 70.5 h came out at 29.1%.
With `CCc1n[nH]c(C2CN(C(=O)c3ccsc3)CCO2)n1` (stereo not drawn), the cytotoxicity at 70.5 h is -9.96%.
For `O=C(NCCCn1cncn1)NCC(c1ccccc1)N1CCCC1` (stereo not drawn) the value was 0.00173%; for `O=C(NCc1cccnc1-n1cccn1)C1CC(=O)N(CC2CC2)C1` (stereo not drawn), -13.2%.
The same measure for `Cc1nnc(C2Cc3ccccc3CN2Cc2ncc(C(C)(C)C)o2)o1` (stereo not drawn): 34.5%; for `COc1c(CNCc2ccc(C(=O)NC3CC3)cc2)c(C)nn1C`: -3.83%.
